From PubChem BioAssay (NCI) come the findings set out here.

Molecules are shown by their SMILES. Several values for one entry are separate records, joined by “and”; a condition that tells them apart may be missing. Equal values may be shown once.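 Briefly, cells in 96-well plates were exposed to five compound concentrations for 48 h, and endpoints were estimated by linear interpolation. GI50 marks 50% less growth. TGI: total growth inhibition.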

Holding throughout (assay): growth of human tumour cells (NCI), 48 h
Test [1] deals with EKVX NSCLC.
For test [2], the system named is HCC-2998 colon.
The test system of test [3] is HL-60(TB) leukemia.
Test [4] deals with MOLT-4 leukemia.
Test [5] relates to SK-MEL-5 melanoma.
Test [6] concerns SK-OV-3 ovarian.
The test system of test [7] is SNB-75 CNS.
Test [8] relates to SR leukemia.
In test [9] the test system is U251 CNS.
For test [10], the system named is UACC-257 melanoma.

With `C=CCNC(=S)OCCCCCCCCCC`, the TGI was 39.6 µM in test [1]; 31.8 µM in test [2]; 53.5 µM in test [3]; 34.6 µM in test [4]; 30.5 µM in test [5]; 43.3 µM in [6]. The TGI was determined as 49.8 µM in test [7], 78.3 µM in test [8], 30.8 µM in test [9] and 34.6 µM in test [10].
For the compound `O=C1C(=O)c2c(nc3ncccn23)-c2ccccc21`, the GI50 in test [1] was 0.396 µM; in test [2], 0.408 µM; in [3], 0.247 µM; in [4] it was 0.257 µM; in test [5] it was 0.167 µM; in [6], 1.08 µM. Besides, the GI50 in test [7] was 0.378 µM; in test [8] it was 0.315 µM; in test [9], 0.316 µM; in test [10], 0.175 µM. Also, the TGI is 0.954 µM in test [1]; 0.935 µM in test [2]; 0.64 µM in test [3]; 0.711 µM in test [4]; 0.304 µM in test [5]; 2.52 µM in test [6]. For the same compound, the TGI is 0.793 µM in [7], 1.16 µM in test [9] and 0.339 µM in test [10].
As for `CC(C)(C)c1nnc2n(c1=O)N=CC(c1ccc(Br)cc1)S2` (stereo not given), the GI50 in test [1] was 22.7 µM; in [2] it was 26.3 µM; in [3] it was 39 µM; in test [4], 31.5 µM; in test [5], 18.6 µM; in [6] it was 89.9 µM. The GI50 in test [7] is 21.5 µM; in [8], 24.2 µM; in test [9], 26 µM; in test [10] it was 30.5 µM. The TGI was 66.7 µM in test [1]; 56.7 µM in [2]; greater than 100 µM in test [3]; greater than 100 µM in test [4]; 38.3 µM in test [5]; greater than 100 µM in test [6]. The TGI in test [7] was 96.6 µM; in test [8] it was 80.7 µM; in test [9], 66.9 µM; in test [10], 69.4 µM.
Consider `Clc1ccc(-c2cn(-c3ccccc3)c(-c3ccccc3)n2)c(Cl)c1`, for which the GI50 in test [1] is greater than 18.5 µM; in test [3], 9.74 µM; in test [4] it was greater than 20.5 µM; in test [5] it was 48.5 µM; in [6], 5.15 µM; in test [7] it was 0.864 µM. The GI50 is 1.05 µM in test [8], 1.25 µM in test [9] and greater than 22.8 µM in test [10]. Also, the TGI in test [1] is greater than 50 µM; in test [2], greater than 25.5 µM; in test [3], greater than 50 µM; in test [4], greater than 50 µM; in test [5], greater than 50 µM; in test [6], greater than 35.7 µM. The TGI in [7] is 2.2 µM; in test [8], 4.01 µM; in [9], 3.83 µM; in test [10], greater than 50 µM.
As for `O=C1NC(=S)NC(=O)C1=Cc1ccc2ccccc2n1`, the TGI in [1], in [2], in test [3], in [4], in test [5] and in [6] was greater than 100 µM each time. Besides, the TGI in test [7], in test [8], in test [9] and in [10] was greater than 100 µM throughout.
On to `CCc1nc(N)nc(N)c1-c1ccc(Cl)c(N=NN(C)C)c1`, for which the TGI in [1] is greater than 95.2 µM; in test [2], 62.9 µM; in test [3], greater than 52.9 µM; in test [4] it was 73.5 µM; in [5] it was 50.2 µM; in test [6] it was greater than 100 µM. Further, the TGI in test [7] was greater than 100 µM; in test [8], 44.8 µM; in test [9], greater than 100 µM; in test [10], greater than 100 µM.
For the compound `N#Cc1nc(Nc2ccc([N+](=O)[O-])cc2)sc1N`, the TGI is greater than 100 µM in test [1]; 33.1 µM in test [2]; greater than 29.8 µM in test [3]; greater than 82 µM in [4]; 12.7 µM in [5]; 97.5 µM in test [6]. In addition, the TGI in test [7] was greater than 100 µM; in test [8], 6.85 µM; in [9], greater than 48.5 µM; in test [10], 63.7 µM.
In the case of `NC(=S)N/N=C(\C(=O)Nc1ccc(Cl)c(Cl)c1)C1=NN(c2ccccc2)C(c2cccc([N+](=O)[O-])c2)CC1=O` (stereo not given), the TGI in test [1] was greater than 100 µM; in test [2], greater than 100 µM; in test [3] it was greater than 100 µM; in test [4] it was 70.9 µM; in test [5] it was greater than 100 µM; in test [6] it was greater than 100 µM. Also, the TGI in test [7] is 99.7 µM; in [8] it was greater than 100 µM; in [9] it was 17 µM; in [10], 83.1 µM.
For the compound `CC1=C(c2cc(C(=O)Nc3cccc(C(F)(F)F)c3)nc(NC#N)n2)Sc2ccccc2N1`, the TGI in [1], in test [2], in test [3], in test [4], in test [5] and in test [6] was greater than 100 µM in each case. Besides, the TGI in test [7], in [8], in [9] and in test [10] was greater than 100 µM in each case.
For the compound `O=C1CCC2CCOc3ccc(O)c1c32` (stereo not given), the TGI in [1], in [2], in test [3], in [4], in test [5] and in [6] was greater than 100 µM in each case. The TGI in test [7], in test [8], in test [9] and in test [10] was greater than 100 µM in each case.
As for `Cc1ccccc1NC(=O)c1sc2nc3c(cc2c1N)C(=O)CCC3`, the GI50 was 6.82 µM in test [1]; 3.21 µM in [2]; 3.1 µM in test [3]; 11.3 µM in test [4]; 0.613 µM in test [5]; 2.72 µM in test [6]. Besides, the GI50 was 1.66 µM in [7], 2.93 µM in test [8], 1.67 µM in test [9] and 1.97 µM in test [10]. Further, the TGI in test [1] is greater than 100 µM; in [2] it was greater than 100 µM; in [3] it was greater than 100 µM; in test [4] it was greater than 100 µM; in test [5], 11.6 µM; in test [6] it was greater than 100 µM. In addition, the TGI is greater than 100 µM in test [7], greater than 100 µM in [8], 21.4 µM in [9] and greater than 100 µM in test [10].
`CCCCc1nc2cc(/C=C/C(=O)NO)ccc2n1CCN(CC)CC`: the GI50 in [1] was 0.387 µM; in test [2], 0.242 µM; in [3] it was 0.441 µM; in test [4], 0.384 µM; in test [5] it was 0.146 µM; in test [6], 0.241 µM. The GI50 in test [7] is 0.227 µM; in [8], 0.605 µM; in test [9] it was 0.28 µM; in test [10], 0.0759 µM. Also, the TGI in test [1] was greater than 100 µM; in [2], 1.23 µM; in test [3] it was greater than 100 µM; in [4], greater than 88.8 µM; in [5], 0.339 µM; in test [6], 0.88 µM. Further, the TGI is 25.4 µM in [7], greater than 100 µM in [8], 1.43 µM in test [9] and 0.58 µM in [10].
Take `O=C(Nc1ccccc1F)c1ccc(NC2=C(Cl)C(=O)N(Cc3ccccc3)C2=O)cc1`: the GI50 in test [1] was 16.6 µM; in [2], 15.7 µM; in [3], 1.72 µM; in test [4], 2.45 µM; in test [5], 4.41 µM; in test [6], 17.6 µM. The GI50 in test [7] is 16.5 µM; in test [8], 0.66 µM; in test [9], 13.3 µM; in test [10] it was 12.5 µM. The TGI in [1] came out at 30.2 µM; in [2], 29.1 µM; in test [3], 3.36 µM; in test [4] it was 6.79 µM; in test [5], 16.2 µM; in test [6], 31.4 µM. Also, the TGI in test [7] worked out at 30 µM; in test [8], 2.46 µM; in [9], 26 µM; in [10], 29.8 µM.
`CC(C)c1ccc(O)c(=O)cc1`: the TGI in test [1] is greater than 100 µM; in test [2], greater than 100 µM; in test [3] it was greater than 24.5 µM; in test [4], > 44.8 µM and 6.22 µM; in [5], 35.2 µM and 41.4 µM; in test [6], greater than 100 µM. In addition, the TGI in [7] was greater than 100 µM; in test [8], greater than 100 µM; in [9], greater than 80.9 µM; in [10] it was 31 µM. The GI50 in test [3] is 2.51 µM; in test [4], 2.16 µM; in [5], 11.1 µM; in [7] it was 75.4 µM; in test [8], 4.18 µM; in test [9], 6.53 µM. In addition, the GI50 in test [10] is 15.9 µM.
